Reference: ChEMBL document CHEMBL2010722, “Structure-activity relationship study of beta-carboline derivatives as haspin kinase inhibitors” (Bioorg Med Chem Lett, 2012)

Experiments:
[1] = biological target: Fibroblast growth factor receptor 3 (Homo sapiens) (UniProt P22607); assay: Inhibition of FGFR3 at 10 uM
[2] = biological target: SRSF protein kinase 2 (Homo sapiens) (UniProt P78362); assay: Inhibition of SRPK2 at 10 uM
[3] = tested on: Liver; assay: Intrinsic clearance in mouse liver microsome at 3 uM; assay type: ADME; details: microsomes
[4] = biological target: Dual specificity protein kinase CLK2 (Homo sapiens) (UniProt P49760); assay: Inhibition of CLK2 at 10 uM
[5] = biological target: Serine/threonine-protein kinase pim-2 (Homo sapiens) (UniProt Q9P1W9); assay: Inhibition of PIM2 at 10 uM
[6] = biological target: Serine/threonine-protein kinase Chk1 (Homo sapiens) (UniProt O14757); assay: Inhibition of CHK1 at 10 uM
[7] = biological target: Epidermal growth factor receptor (Homo sapiens) (UniProt P00533); assay: Inhibition of EGFR at 10 uM
[8] = tested on: Liver; assay: Half life in mouse liver microsome at 3 uM; assay type: ADME; details: microsomes
[9] = biological target: Insulin receptor-related protein (Homo sapiens) (UniProt P14616); assay: Inhibition of IRR at 10 uM
[10] = biological target: 3-phosphoinositide-dependent protein kinase 1 (Homo sapiens) (UniProt O15530); assay: Inhibition of PDK1 at 10 uM
[11] = biological target: Cyclin-dependent kinase 5/CDK5 activator 1 (Homo sapiens) (UniProt Q00535+Q15078); assay: Inhibition of CDK5-p25 at 10 uM; assay type: protein-complex assay
[12] = tested on: Mast/stem cell growth factor receptor Kit (Homo sapiens), P10721 [T670I]; assay: Inhibition of KIT T670I mutant at 10 uM
[13] = tested on: Mast/stem cell growth factor receptor Kit (Homo sapiens), P10721 [V560G]; assay: Inhibition of KIT V560G mutant at 10 uM
[14] = biological target: Serine/threonine-protein kinase TBK1 (Homo sapiens) (UniProt Q9UHD2); assay: Inhibition of TBK1 at 10 uM
[15] = biological target: Vascular endothelial growth factor receptor 2 (Homo sapiens) (UniProt P35968); assay: Inhibition of KDR at 10 uM
[16] = biological target: STE20-like serine/threonine-protein kinase (Homo sapiens) (UniProt Q9H2G2); assay: Inhibition of SLK at 10 uM
[17] = biological target: Receptor-type tyrosine-protein kinase FLT3 (Homo sapiens) (UniProt P36888); assay: Inhibition of FLT3 at 10 uM
[18] = biological target: CDK3/cyclin E (Homo sapiens) (UniProt P24864+O96020+Q00526); assay: Inhibition of CDK3-Cyclin E1 at 10 uM; assay type: protein-complex assay
[19] = biological target: Glycogen synthase kinase-3 beta (Homo sapiens) (UniProt P49841); assay: Inhibition of GSK3b at 10 uM
[20] = biological target: Mitogen-activated protein kinase kinase kinase 3 (Homo sapiens) (UniProt Q99759); assay: Inhibition of MAP3K3 at 10 uM
[21] = biological target: Inhibitor of nuclear factor kappa-B kinase subunit epsilon (Homo sapiens) (UniProt Q14164); assay: Inhibition of IKKe at 10 uM
[22] = biological target: Serine/threonine-protein kinase D1 (Homo sapiens) (UniProt Q15139); assay: Inhibition of PKD1 at 10 uM
[23] = biological target: Non-receptor tyrosine-protein kinase TYK2 (Homo sapiens) (UniProt P29597); assay: Inhibition of TYK2 at 10 uM
[24] = biological target: Tyrosine-protein kinase ABL1 (Homo sapiens) (UniProt P00519); assay: Inhibition of ABL at 10 uM
[25] = biological target: Protein kinase C gamma type (Homo sapiens) (UniProt P05129); assay: Inhibition of PKCgamma at 10 uM
[26] = tested on: Fibroblast growth factor receptor 3 (Homo sapiens), P22607 [K650M]; assay: Inhibition of FGFR3 K650M mutant at 10 uM
[27] = biological target: Casein kinase I isoform alpha (Homo sapiens) (UniProt P48729); assay: Inhibition of CK1a at 10 uM
[28] = biological target: Mitogen-activated protein kinase 1 (Homo sapiens) (UniProt P28482); assay: Inhibition of Erk2 at 10 uM
[29] = biological target: cAMP-dependent protein kinase catalytic subunit alpha (Homo sapiens) (UniProt P17612); assay: Inhibition of PKACa at 10 uM
[30] = biological target: Bone morphogenetic protein receptor type-1A (Homo sapiens) (UniProt P36894); assay: Inhibition of BMPR1A at 10 uM
[31] = biological target: Dual specificity tyrosine-phosphorylation-regulated kinase 2 (Homo sapiens) (UniProt Q92630); assay: Inhibition of DYRK2 at 10 uM
[32] = biological target: CDC7/DBF4 (Cell division cycle 7-related protein kinase/Activator of S phase kinase) (Homo sapiens) (UniProt Q9UBU7+O00311); assay: Inhibition of CDC7-Dbf4 at 10 uM; assay type: protein-complex assay
[33] = biological target: Serine/threonine-protein kinase 3 (Homo sapiens) (UniProt Q13188); assay: Inhibition of MST2 at 10 uM
[34] = tested on: Platelet-derived growth factor receptor alpha (Homo sapiens), P16234 [T674I]; assay: Inhibition of PDGFRa T674I mutant at 10 uM
[35] = biological target: Tyrosine-protein kinase Lyn (Homo sapiens) (UniProt P07948); assay: Inhibition of LYNb at 10 uM
[36] = biological target: Ephrin type-A receptor 3 (Homo sapiens) (UniProt P29320); assay: Inhibition of EPHA3 at 10 uM
[37] = biological target: Homeodomain-interacting protein kinase 3 (Homo sapiens) (UniProt Q9H422); assay: Inhibition of HIPK3 at 10 uM
[38] = biological target: Tyrosine-protein kinase Fyn (Homo sapiens) (UniProt P06241); assay: Inhibition of FYN at 10 uM
[39] = biological target: Mitogen-activated protein kinase 10 (Homo sapiens) (UniProt P53779); assay: Inhibition of JNK3 at 10 uM
[40] = biological target: Inhibitor of nuclear factor kappa-B kinase subunit alpha (Homo sapiens) (UniProt O15111); assay: Inhibition of IKKa at 10 uM
[41] = biological target: Muscle, skeletal receptor tyrosine-protein kinase (Homo sapiens) (UniProt O15146); assay: Inhibition of MUSK at 10 uM
[42] = biological target: Calcium/calmodulin-dependent protein kinase type 1 (Homo sapiens) (UniProt Q14012); assay: Inhibition of CaMK1alpha at 10 uM
[43] = biological target: Ephrin type-A receptor 8 (Homo sapiens) (UniProt P29322); assay: Inhibition of EPHA8 at 10 uM
[44] = biological target: Calcium/calmodulin-dependent protein kinase type II subunit delta (Homo sapiens) (UniProt Q13557); assay: Inhibition of CaMK2d at 10 uM
[45] = biological target: MAP kinase-interacting serine/threonine-protein kinase 1 (Homo sapiens) (UniProt Q9BUB5); assay: Inhibition of MNK1 at 10 uM
[46] = biological target: Tyrosine-protein kinase SYK (Homo sapiens) (UniProt P43405); assay: Inhibition of SYK at 10 uM
[47] = biological target: Ephrin type-A receptor 2 (Homo sapiens) (UniProt P29317); assay: Inhibition of EPHA2 at 10 uM

STE20-like serine/threonine-protein kinase (Homo sapiens), sequence (Q9H2G2 whole entry, looked up): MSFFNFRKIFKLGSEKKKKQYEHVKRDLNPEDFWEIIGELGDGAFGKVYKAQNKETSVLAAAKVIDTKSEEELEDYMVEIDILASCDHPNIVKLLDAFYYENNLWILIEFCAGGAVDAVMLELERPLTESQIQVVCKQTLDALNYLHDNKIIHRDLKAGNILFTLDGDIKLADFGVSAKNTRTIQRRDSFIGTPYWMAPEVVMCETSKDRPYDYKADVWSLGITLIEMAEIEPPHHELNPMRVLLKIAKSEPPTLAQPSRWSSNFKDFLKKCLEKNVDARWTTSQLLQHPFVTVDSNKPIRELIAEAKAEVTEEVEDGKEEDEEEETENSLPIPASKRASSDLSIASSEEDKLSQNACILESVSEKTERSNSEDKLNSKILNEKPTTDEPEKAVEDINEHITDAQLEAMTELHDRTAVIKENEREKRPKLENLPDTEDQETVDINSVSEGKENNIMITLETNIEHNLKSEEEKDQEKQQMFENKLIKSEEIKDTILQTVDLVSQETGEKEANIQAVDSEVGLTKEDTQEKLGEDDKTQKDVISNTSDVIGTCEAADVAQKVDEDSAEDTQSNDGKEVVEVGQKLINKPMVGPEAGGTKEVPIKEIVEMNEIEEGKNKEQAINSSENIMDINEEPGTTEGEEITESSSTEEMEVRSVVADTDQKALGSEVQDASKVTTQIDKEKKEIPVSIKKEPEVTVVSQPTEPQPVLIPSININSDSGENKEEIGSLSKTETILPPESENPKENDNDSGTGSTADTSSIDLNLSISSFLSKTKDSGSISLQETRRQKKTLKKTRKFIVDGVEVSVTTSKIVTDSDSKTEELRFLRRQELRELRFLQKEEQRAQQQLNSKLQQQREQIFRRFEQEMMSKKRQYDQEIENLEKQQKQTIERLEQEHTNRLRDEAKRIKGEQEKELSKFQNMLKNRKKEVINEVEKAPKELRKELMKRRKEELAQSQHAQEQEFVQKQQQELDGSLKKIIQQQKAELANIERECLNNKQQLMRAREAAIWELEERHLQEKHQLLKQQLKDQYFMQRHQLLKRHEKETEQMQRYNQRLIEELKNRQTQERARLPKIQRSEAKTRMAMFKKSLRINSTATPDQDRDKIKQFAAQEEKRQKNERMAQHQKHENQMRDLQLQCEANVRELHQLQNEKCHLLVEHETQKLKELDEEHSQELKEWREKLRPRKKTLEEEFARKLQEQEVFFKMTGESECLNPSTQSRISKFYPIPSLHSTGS
SRSF protein kinase 2 (Homo sapiens), sequence (P78362 whole entry, looked up): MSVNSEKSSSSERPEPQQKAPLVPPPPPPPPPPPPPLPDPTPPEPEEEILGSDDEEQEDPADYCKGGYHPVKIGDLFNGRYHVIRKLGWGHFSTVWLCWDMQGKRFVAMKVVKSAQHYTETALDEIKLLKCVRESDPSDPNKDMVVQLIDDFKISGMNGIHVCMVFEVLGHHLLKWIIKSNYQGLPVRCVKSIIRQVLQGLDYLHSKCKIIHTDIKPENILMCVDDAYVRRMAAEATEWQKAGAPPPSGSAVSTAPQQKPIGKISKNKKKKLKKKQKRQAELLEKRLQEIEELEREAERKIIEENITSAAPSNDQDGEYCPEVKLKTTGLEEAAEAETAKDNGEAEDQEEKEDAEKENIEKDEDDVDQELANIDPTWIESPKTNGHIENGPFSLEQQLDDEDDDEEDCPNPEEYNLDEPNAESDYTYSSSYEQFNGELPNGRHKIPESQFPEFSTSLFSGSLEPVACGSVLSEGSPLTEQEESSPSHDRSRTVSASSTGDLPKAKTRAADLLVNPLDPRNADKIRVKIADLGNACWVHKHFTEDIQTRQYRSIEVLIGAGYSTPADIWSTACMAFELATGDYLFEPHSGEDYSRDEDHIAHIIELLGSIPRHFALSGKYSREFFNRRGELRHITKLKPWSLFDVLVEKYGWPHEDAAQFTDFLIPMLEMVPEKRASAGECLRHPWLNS
Cyclin-dependent kinase 5/CDK5 activator 1 (Homo sapiens), sequence (Q00535 whole entry): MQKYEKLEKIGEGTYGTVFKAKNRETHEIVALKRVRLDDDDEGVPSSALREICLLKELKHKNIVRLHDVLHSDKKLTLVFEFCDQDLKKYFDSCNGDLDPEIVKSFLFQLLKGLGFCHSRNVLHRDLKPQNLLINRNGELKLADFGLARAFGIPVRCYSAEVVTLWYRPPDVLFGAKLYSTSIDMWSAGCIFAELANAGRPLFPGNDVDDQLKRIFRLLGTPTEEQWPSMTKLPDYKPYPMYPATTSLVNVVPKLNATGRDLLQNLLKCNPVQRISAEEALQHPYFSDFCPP
Cyclin-dependent kinase 5/CDK5 activator 1 (Homo sapiens), sequence (Q15078 99-307 partner limits assumed): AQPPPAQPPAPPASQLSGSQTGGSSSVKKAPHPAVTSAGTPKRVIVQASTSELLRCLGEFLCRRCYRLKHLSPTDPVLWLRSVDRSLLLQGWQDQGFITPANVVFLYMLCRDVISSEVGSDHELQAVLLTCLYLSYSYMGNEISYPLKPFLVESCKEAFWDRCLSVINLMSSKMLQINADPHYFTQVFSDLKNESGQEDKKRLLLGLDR
Tyrosine-protein kinase Lyn (Homo sapiens), sequence (P07948 2-512 limits assumed): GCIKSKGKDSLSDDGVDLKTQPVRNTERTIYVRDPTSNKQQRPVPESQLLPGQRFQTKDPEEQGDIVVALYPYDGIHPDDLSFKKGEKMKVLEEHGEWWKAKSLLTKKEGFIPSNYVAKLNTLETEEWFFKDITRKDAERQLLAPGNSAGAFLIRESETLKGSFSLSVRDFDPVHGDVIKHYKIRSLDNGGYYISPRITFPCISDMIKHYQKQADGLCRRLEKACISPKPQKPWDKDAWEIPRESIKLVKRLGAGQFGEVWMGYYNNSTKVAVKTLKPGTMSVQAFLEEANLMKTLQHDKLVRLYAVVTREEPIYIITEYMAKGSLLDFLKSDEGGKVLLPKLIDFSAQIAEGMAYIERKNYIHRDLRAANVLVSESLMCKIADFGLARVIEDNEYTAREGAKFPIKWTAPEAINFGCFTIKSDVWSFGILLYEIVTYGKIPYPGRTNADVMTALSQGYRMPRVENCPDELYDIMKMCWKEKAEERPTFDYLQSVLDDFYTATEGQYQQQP
Dual specificity tyrosine-phosphorylation-regulated kinase 2 (Homo sapiens), sequence (Q92630 whole entry): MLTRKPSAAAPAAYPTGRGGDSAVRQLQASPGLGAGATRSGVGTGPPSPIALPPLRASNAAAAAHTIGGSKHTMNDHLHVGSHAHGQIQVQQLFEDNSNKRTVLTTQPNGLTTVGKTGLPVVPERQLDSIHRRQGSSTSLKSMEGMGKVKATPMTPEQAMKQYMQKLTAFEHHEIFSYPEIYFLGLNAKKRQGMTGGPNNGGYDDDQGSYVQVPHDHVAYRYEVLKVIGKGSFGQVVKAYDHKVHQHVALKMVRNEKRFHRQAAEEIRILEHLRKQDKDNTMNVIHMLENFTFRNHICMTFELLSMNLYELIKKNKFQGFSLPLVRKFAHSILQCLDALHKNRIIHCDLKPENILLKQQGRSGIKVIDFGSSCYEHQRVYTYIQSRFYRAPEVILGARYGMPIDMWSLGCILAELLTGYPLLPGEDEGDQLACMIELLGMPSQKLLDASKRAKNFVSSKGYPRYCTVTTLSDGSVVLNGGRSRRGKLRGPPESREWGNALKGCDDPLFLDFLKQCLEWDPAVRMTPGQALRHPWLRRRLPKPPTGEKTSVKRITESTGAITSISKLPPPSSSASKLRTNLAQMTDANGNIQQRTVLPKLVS
Insulin receptor-related protein (Homo sapiens), sequence (P14616 27-742 limits assumed): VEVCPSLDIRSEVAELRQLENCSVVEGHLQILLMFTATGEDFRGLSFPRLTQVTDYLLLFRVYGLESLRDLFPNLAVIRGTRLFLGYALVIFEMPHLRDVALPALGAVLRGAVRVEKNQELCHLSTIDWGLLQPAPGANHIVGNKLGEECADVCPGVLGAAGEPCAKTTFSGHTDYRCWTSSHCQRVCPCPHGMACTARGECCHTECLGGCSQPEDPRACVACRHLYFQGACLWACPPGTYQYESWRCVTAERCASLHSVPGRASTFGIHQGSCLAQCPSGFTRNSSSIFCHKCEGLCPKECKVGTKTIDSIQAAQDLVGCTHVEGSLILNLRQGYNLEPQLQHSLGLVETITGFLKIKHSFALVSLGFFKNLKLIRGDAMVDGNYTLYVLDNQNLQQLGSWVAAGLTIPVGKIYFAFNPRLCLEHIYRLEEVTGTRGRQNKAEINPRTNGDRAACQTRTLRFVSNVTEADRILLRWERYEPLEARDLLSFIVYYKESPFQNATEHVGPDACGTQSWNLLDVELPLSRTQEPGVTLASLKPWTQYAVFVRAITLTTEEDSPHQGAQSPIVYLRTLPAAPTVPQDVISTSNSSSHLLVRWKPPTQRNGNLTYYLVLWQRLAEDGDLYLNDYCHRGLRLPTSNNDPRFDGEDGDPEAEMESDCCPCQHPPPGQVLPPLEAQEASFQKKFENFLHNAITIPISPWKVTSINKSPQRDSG
Insulin receptor-related protein (Homo sapiens), sequence (P14616 747-1297 limits assumed): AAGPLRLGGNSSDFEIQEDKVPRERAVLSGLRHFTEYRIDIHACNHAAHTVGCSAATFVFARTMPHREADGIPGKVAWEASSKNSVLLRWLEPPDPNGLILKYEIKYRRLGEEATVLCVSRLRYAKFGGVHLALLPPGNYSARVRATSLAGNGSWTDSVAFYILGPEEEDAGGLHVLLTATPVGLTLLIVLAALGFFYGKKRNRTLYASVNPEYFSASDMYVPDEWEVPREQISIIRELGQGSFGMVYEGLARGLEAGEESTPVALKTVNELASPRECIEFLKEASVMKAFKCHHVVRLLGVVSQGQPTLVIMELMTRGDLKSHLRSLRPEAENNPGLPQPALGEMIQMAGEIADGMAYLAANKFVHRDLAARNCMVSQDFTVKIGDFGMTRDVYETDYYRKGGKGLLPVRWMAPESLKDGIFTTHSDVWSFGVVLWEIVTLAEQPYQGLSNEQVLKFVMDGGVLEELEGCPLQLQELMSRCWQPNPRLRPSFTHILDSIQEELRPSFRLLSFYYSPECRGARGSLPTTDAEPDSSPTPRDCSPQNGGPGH

How did the inhibition [1] turn out when `COc1ccc2c3ccnc(C(F)(F)F)c3n(CCCCN)c2c1` was run?
The inhibition was 1%.

And the inhibition [2]?
Its inhibition is 0%.

What about the CLH [3] of the same compound?
Its CLH is 3.8 µL/min/mg.

What about the inhibition [4] of the same compound?
The inhibition was 99%.

What about the inhibition [5] of the same compound?
Its inhibition is 64%.

And the inhibition [6]?
The inhibition was 25%.

And the inhibition [7]?
The inhibition was 13%.

What about the t1/2 [8] of the same compound?
The t1/2 was 5.68 h.

And the inhibition [9]?
The inhibition was 0%.

And the inhibition [10]?
Its inhibition is 0%.

What about the inhibition [11] of the same compound?
The inhibition was 39%.

And the inhibition [12]?
Its inhibition is 16%.

What about the inhibition [13] of the same compound?
Its inhibition is 16%.

What about the inhibition [14] of the same compound?
Its inhibition is 4%.

What about the inhibition [15] of the same compound?
The inhibition was 2%.

What about the inhibition [16] of the same compound?
Its inhibition is 20%.

What about the inhibition [17] of the same compound?
The inhibition was 74%.

What about the inhibition [18] of the same compound?
Its inhibition is 22%.

What about the inhibition [19] of the same compound?
The inhibition was 27%.

What about the inhibition [20] of the same compound?
Its inhibition is 0%.

What about the inhibition [21] of the same compound?
Its inhibition is 0%.

What about the inhibition [22] of the same compound?
The inhibition was 85%.

What about the inhibition [23] of the same compound?
The inhibition was 15%.

What about the inhibition [24] of the same compound?
Its inhibition is 3%.

And the inhibition [25]?
Its inhibition is 22%.

And the inhibition [26]?
Its inhibition is 0%.

And the inhibition [27]?
Its inhibition is 73%.

And the inhibition [28]?
The inhibition was 7%.

What about the inhibition [29] of the same compound?
The inhibition was 28%.

And the inhibition [30]?
The inhibition was 35%.

And the inhibition [31]?
Its inhibition is 86%.

And the inhibition [32]?
The inhibition was 14%.

And the inhibition [33]?
Its inhibition is 3%.

And the inhibition [34]?
Its inhibition is 49%.

And the inhibition [35]?
The inhibition was 0%.

What about the inhibition [36] of the same compound?
The inhibition was 0%.

What about the inhibition [37] of the same compound?
Its inhibition is 49%.

And the inhibition [38]?
The inhibition was 8%.

And the inhibition [39]?
The inhibition was 17%.

And the inhibition [40]?
Its inhibition is 7%.

What about the inhibition [41] of the same compound?
The inhibition was 42%.

What about the inhibition [42] of the same compound?
Its inhibition is 14%.

What about the inhibition [43] of the same compound?
Its inhibition is 0%.

And the inhibition [44]?
The inhibition was 91%.

What about the inhibition [45] of the same compound?
The inhibition was 37%.

And the inhibition [46]?
The inhibition was 0%.

What about the inhibition [47] of the same compound?
The inhibition was 0%.
